Assay results published in patent EP3553052A1, “5-OXO-4,5-DIHYDRO-1H-1,2,4-TRIAZOL DERIVATIVES FOR THE TREATMENT OF CANCER” (Bayer AG, priority 2018, dated 2019).

Key:
THP-1 cells = test: THP-1 proliferation assay - 1 (AML); type: cell-based; details: Homo sapiens, 72h incubation, CellTiter-Glo cell viability, read-out: Target IC50
Description: In vitro Assay 2: THP-1 proliferation assay - 1 (AML) 2000 cells/well of THP-1 cells were seeded in RPMI 1640 with Glutamax (Gibco, #11875-093) and 10% fetal calf serum (Biochrom, #S0615) in 384-well plates. The next day, cells were incubated with different concentrations of test compounds for 72h. Cellular viability was analyzed using CellTiter-Glo® Luminescent Cell Viability Assay (Promega, #G7570) according to manufacturer's instructions.

human DHODH = molecular target: T1, human DHODH (Homo sapiens, UniProt Q02127); test: DHODH enzymatic assay - 1 (DCIP bleaching); type: biochemical; details: 2 nM DHODH, 1 mM dihydroorotate, 0.1 mM decylubiquinone, 0.06 mM DCIP, pH 8.0, 32 degree celsius; read-out: Target IC50
T1 construct: purchased Novus NBP1-98916
Description: The assay was conducted in buffer containing 50 mM Tris, 0.1% Triton X-100, 150 mM potassium chloride, 2 nM DHODH, 1 mM dihydroorotate, 0.1 mM decylubiquinone, 0.06 mM DCIP, and 2% DMSO at pH 8.0 at 32 degree celsius. The reaction was initiated by addition of substrates. Enzyme activity was monitored kinetically by the reduction in DCIP absorbance at 600 nm. Purified recombinant human DHODH enzyme was purchased from Novus (cat. no. NBP1-98916). Other chemicals were purchased from Sigma-Aldrich. Absorbance measurements were obtained using a BMG clarion star plate-reading spectrophotometer. Table 1: DHODH enzymatic assay : IC50 values of examples in in vitro assay 1

T1 sequence (Q02127 whole entry): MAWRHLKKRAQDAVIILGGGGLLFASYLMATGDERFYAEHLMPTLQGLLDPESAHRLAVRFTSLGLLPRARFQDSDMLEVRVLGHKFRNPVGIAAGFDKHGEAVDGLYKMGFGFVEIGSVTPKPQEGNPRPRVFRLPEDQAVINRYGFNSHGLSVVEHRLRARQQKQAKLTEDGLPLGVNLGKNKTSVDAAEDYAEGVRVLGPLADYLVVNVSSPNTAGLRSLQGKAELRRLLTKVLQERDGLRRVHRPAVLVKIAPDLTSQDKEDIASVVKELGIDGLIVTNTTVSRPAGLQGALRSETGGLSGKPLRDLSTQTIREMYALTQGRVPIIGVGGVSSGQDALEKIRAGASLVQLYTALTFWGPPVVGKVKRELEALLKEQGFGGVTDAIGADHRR

CCCCOc1cc(-n2nc(-c3ccccc3Cl)[nH]c2=O)c(F)cc1C(=O)Nc1c(F)cccc1Cl [Compound I, 2-butoxy-N-(2-chloro-6-fluorophenyl)-4-[3-(2-chlorophenyl)-5-oxo-4,5-dihydro-1H-1,2,4-triazol-1-yl]-5-fluorobenzamide]
IC50 (THP-1 cells): 305 nM | IC50 (human DHODH): 3000 nM
